{
  "source": "patent US20110288033A1",
  "about": "“Disulfide Compounds for Phototherapy” (Mallinckrodt Inc., priority 2010, published 2011)",
  "key": {"[1]": {"test_system": "human myeloid leukemia U937 cell line", "format": "cell-based", "details": "0, 2.5, 5 and 10 μM; light 0, 10, 20 minutes", "experimental": "A general procedure is carried out for measuring cell viability upon exposure of cancer cells to a disulfide photosensitizer and light. The disulfide photosensitizer evaluated is a commercially available compound having formula (FX13): […]\nCompound (FX13) was purchased from Sigma-Aldrich (Cat #158194). […] Preparation of compound (FX13) is known and can be found, for example, in Rath, C. Derivatives of pyridine. XII. Mercaptans and sulfonic acids of pyridine. Justus Liebigs Annalen der Chemie 1931, 487, 105-119, which is hereby incorporated by reference. Some properties of compound (FX13) are known and can be found, for example, in Grassetti, D. R.; Brokke, M. E.; Murray, J. F., Jr. The effect of some sulfur-containing pyridine derivatives on the carbohydrate metabolism of ehrlich ascites tumor. J. Med. Chem. 1965, 8, 753-756, which is hereby incorporated by reference. The cell viability analysis is carried out using a human myeloid leukemia U937 cell line by the standard WST-1 assay. […]\nThe disulfide photosensitizer is dissolved in DMSO at an initial concentration of about 8 mM and diluted with water to the final desired value such that amount of DMSO exposed to the cells is kept […]. […] The viability of cells is assessed after 24 hours following light exposure. […] The number of viable cells is determined and percent viability is determined: […]"}, "UV spectrum in DMSO": {"experiment": "UV spectrum in DMSO", "format": "physicochemical"}},
  "data": [
    {"smiles": "O=[N+]([O-])c1ccc(SSc2ccc([N+](=O)[O-])cn2)nc1", "note": "[FX13]", "values": [
      {"measurement": "change in cell viability with photosensitizer and light (FIG. 5)", "setting": "[1]", "value": "concentration-dependent and light exposure time-dependent decrease in cell viability"},
      {"measurement": "absorption λmax", "setting": "UV spectrum in DMSO", "value": 323, "unit": "nm"}
    ]}
  ]
}
